Assay [1] has as its system glucose dehydrogenase (GDH). Nature of the assay: Inhibition of GDH-driven NADH production read out on the paper-based AuNP device. The format is biochemical, Pseudomonas sp. The method, then:
To test the inhibitory effects of Hg(II), different concentrations of Hg(II) was incubated with 0.1 U GDH for 10 min in the presence of 10 mM of glucose and 0.1 M of phosphate buffer solution (pH 7.4) at 25 ° C., then 6 mM of NAD' was added to initiate the enzymatic reaction for […]. The kinetics of the reaction was monitored for the first 6 minutes in a microplate reader to calculate the enzyme's activity. 10 μL of the enzymatic reaction solution were added to 90 μL of 400 μM Au^3+-CTAB solution, and 25 μL of this solution was applied to the device test zone.
The colorimetric results were visualized after 4 minutes and evaluated for the inhibitory effects of these metals by measuring the decrease in the color intensity produced by the enzyme-substrate reaction. Ag(I) and Pb(II) were also tested as potential inhibitors in a similar fashion. Intensity analysis was performed using the ImageJ software.
Clearly, the GDH inhibition and AuNPs dissolution was increased with increasing Hg(II) concentration, with complete dissolution of AuNPs in the testing zone at a Hg(II) ion concentration of 100 μM (FIG. 6B, Hg(II)).
(§1) The resulting solution was then added into a 400 μM of Au^3+-CTAB solution, and 25 μL of this mixture were immediately applied to the testing zone. In the absence of Hg(II), GDH fully converted NAD^+ into NADH after 4 minutes, completely inhibiting AuNP dissolution and leaving the testing zone dark red (FIG. 17A). […] GDH-mediated production of NADH decreased in parallel with the increase of Hg(II) concentration, yielding a lighter readout as increased dissolution of AuNPs occurred (FIG. 17A). […] The color intensity was measured with the ImageJ software and the normalized intensity with different concentrations of Hg(II) was plotted (FIG. 17B). The kinetics of GDH in homogeneous solution was also monitored with or without Hg(II) ions (FIG. 18). Enzyme activity was calculated based on the kinetics of the enzymatic reaction and defined as 100% in the absence of Hg(II).

A further assay concerns GDH. The settings on record: reference 43; cited from earlier work.
Assay [2] concerns the target glucose dehydrogenase (GDH). Nature of the assay: GDH activity in homogeneous solution, absorbance change at 340 nm. The class given is biochemical, Pseudomonas sp. Particulars: Hg(II) 0-200 μM, activity 100% without Hg(II), read-out: IC50 for inhibition of GDH in homogeneous solution. The method, then:
The absorbance change at 340 nm was monitored to calculate enzyme activity. Hg(II) concentrations being tested ranged from 0-200 μM. The enzyme's activity was defined as 100% in the absence of the Hg(II) ion, and as the Hg(II) concentration increased the enzyme's activity decreased.
To test the inhibitory effects of Hg(II), different concentrations of Hg(II) was incubated with 0.1 U GDH for 10 min in the presence of 10 mM of glucose and 0.1 M of phosphate buffer solution (pH 7.4) at 25 ° C., then 6 mM of NAD' was added to initiate the enzymatic reaction for […]. The kinetics of the reaction was monitored for the first 6 minutes in a microplate reader to calculate the enzyme's activity. […]
as §1, with “zone.” for “zone. In the absence of Hg(II), GDH fully converted NAD^+ into NADH after 4 minutes, completely inhibiting AuNP dissolution and leaving the testing zone dark red (FIG. 17A).”

pIC50: −log10 of the molar value.

For the compound lead(II) acetate trihydrate [Pb(II)], the “inhibitory effect on GDH” value in assay [1] (20 to 100 μM of the ion, no dissolution of AuNPs observed) is recorded as “no inhibitory effect”. For the same compound, the “inhibitory effect on GDH (literature)” value in the assay with GDH is listed as “no inhibitory effect”.

Regarding `O=[N+]([O-])[O-].[Ag+]` [Ag(I), silver nitrate], the “activity of GDH” value in assay [1] (20 μM or higher of the ion, completely white readout) was “completely inhibited”. In the assay with GDH, the “inhibitory effect on GDH (literature)” value is reported as “strong inhibitors”.

Usually pIC50 stands for the IC50 on a negative log10 scale, so that one unit is a factor of ten. Regarding `CC(=O)[O-].CC(=O)[O-].[Hg+2]` [Hg(II), mercury(II) acetate], the enzyme activity result in assay [1] (2.5 μM of the ion, small decrease of color intensity) was “slightly inhibited”. In addition, in assay [1] (20 μM of the ion), the “inhibition of AuNPs dissolution” value is given as “approximately 30%”. Besides, the GDH activity entry in assay [1] (20 μM of the ion, light pink color) is on record as “significantly inhibited”. In addition, the “inhibition of GDH” value in assay [1] (100 μM of the ion, completely white readout, complete dissolution of AuNPs) is “complete inhibition”. In addition, the pIC50 in assay [1] (0.1 U GDH, 0-200 μM Hg(II), 400 μM Au3+-CTAB, 4-min reaction, ImageJ intensity) was 4.70; in assay [2] it was 4.74. Also, the “inhibitory effect on GDH (literature)” value with GDH is given as “strong inhibitors”.
